Laboratory results taken from paper PMC9482650, “Quantitative fragmentomics allow affinity mapping of interactomes” (Nature Communications, 2022).
Like-named read-outs stand apart in the source and are kept apart here. One block for each substance: values may come before it. Primed or numbered codes have the meaning given here. Ends that are not written are not given here. * marks the point of attachment. Biotin = O=C1N[C@H]2[C@H](CS[C@H]2CCCCC(=O)*)N1; ttds″ = trioxatridecan-succinamic acid linker

Columns and labels:
DLG1_1 PDZ = DLG1_1 PDZ (Homo sapiens, UniProt Q12959); test: Holdup assay; assay type: binding; conditions: PBM motif of the named protein vs DLG1_1 PDZ; read-out: pKd values – domain-motif, DLG1_1 (converted)
SNX27 PDZ = SNX27 PDZ (Homo sapiens, UniProt Q96L92); test: Holdup assay; assay type: binding
DLG1_2 PDZ = DLG1_2 PDZ (Homo sapiens, UniProt Q12959); test: Holdup assay; assay type: binding; conditions: PBM motif of the named protein vs DLG1_2 PDZ; read-out: pKd values – domain-motif, DLG1_2 (converted)
TX1BP3 PDZ = target: T1, TX1BP3 PDZ (Homo sapiens, UniProt O14907); test: Holdup assay; assay type: binding; conditions: PBM motif of the named protein vs TX1BP3 PDZ; read-out: pKd values – domain-motif, TX1BP3 (converted)
T1 sequence (O14907 15-112 limits assumed): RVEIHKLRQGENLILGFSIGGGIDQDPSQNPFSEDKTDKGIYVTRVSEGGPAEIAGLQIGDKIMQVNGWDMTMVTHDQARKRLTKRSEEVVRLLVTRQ

SCRIB_1 PDZ = SCRIB_1 PDZ (Homo sapiens, UniProt Q14160); test: Holdup assay; assay type: binding; conditions: PBM motif of the named protein vs SCRIB_1 PDZ; read-out: pKd values – domain-motif, SCRIB_1 (converted)
SCRIB2 PDZ = target: T2, SCRIB2 PDZ (Homo sapiens, UniProt Q14160); test: Holdup assay; assay type: binding; conditions: PBM motif of the named protein vs SCRIB_2 PDZ; read-out: pKd values – domain-motif, SCRIB_2 (converted)
T2 sequence (Q14160 862-950 limits assumed): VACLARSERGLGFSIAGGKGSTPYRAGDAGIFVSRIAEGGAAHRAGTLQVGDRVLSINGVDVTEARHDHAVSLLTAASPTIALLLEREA

SNTB2 = test: PBM-AP-MS from HeLa extract; assay type: binding, Homo sapiens; conditions: prey SNTB2 (Q13425), PBM bait vs biotin control
CASK [1] = test: PBM-AP-MS from HaCat extract; assay type: binding, Homo sapiens; conditions: prey CASK (O14936), PBM bait vs biotin control (Biot03)
PDZK1 = test: PBM-AP-MS from HeLa extract; assay type: binding, Homo sapiens; conditions: prey PDZK1 (Q5T2W1), PBM bait vs biotin control
LIN7C [2] = test: PBM-AP-MS from HaCat extract; assay type: binding, Homo sapiens; conditions: prey LIN7C (Q9NUP9), PBM bait vs biotin control (Biot03)
CPVL = test: PBM-AP-MS from HeLa extract; assay type: binding, Homo sapiens; conditions: prey CPVL (Q9H3G5), PBM bait vs biotin control
SCRIB [3] = test: PBM-AP-MS from HeLa extract; assay type: binding, Homo sapiens; conditions: prey SCRIB (Q14160), PBM bait vs biotin control
MPP7 [4] = test: PBM-AP-MS from HaCat extract; assay type: binding, Homo sapiens; conditions: prey MPP7 (Q5T2T1), PBM bait vs biotin control (Biot03)
SYNJ2BP = test: PBM-AP-MS from HaCat extract; assay type: binding, Homo sapiens; conditions: prey SYNJ2BP (P57105), PBM bait vs biotin control (Biot03)
LIN7C [5] = test: PBM-AP-MS from HeLa extract; assay type: binding, Homo sapiens; conditions: prey LIN7C (Q9NUP9), PBM bait vs biotin control
SLC9A3R2 = test: PBM-AP-MS from HaCat extract; assay type: binding, Homo sapiens; conditions: prey SLC9A3R2 (Q15599), PBM bait vs biotin control (Biot03)
MAGI1 = test: PBM-AP-MS from Jurkat extract; assay type: binding, Homo sapiens
Description: (§1) For PBM-AP-MS experiments, 30 μl streptavidin resin was mixed with biotin or peptide at 50–60 μM concentration in 6–6.5 resin volume for 60 min to achieve resin saturation. For PDZ-AP-MS experiments, 30 μl streptavidin resin was mixed with biotinylated MBP or MBP-PDZ at 40-50 μM concentration in >1000× resin volume for 60 min to achieve resin saturation. After saturation, resins were washed a single time (ten resin volume, holdup buffer), and were depleted with biotin (1 mM biotin, 5–10 resin volume, 10 min). Finally, resins were washed two times. 0.5 ml 2 mg/ml cell lysate was added to the dry resin (1 mg total input) and were incubated at 4 °C for 2 h. Then, the beads were washed three times with 10 resin volume buffer containing: 50 mM TRIS pH 8.5, 150 mM NaCl, 1% TritonX-100, 10× complete EDTA-free protease inhibitor cocktail, 2 mM EDTA, 1 mM TCEP. Then, the beads were washed two times with ten resin volume buffer containing: 50 mM TRIS pH 8.5, 150 mM NaCl, 1 mM TCEP. Finally, captured protein was eluted from the resin in two steps and the eluted fractions were pooled. For each elution the beads were incubated for 30 min with three resin volume buffer containing: 20 mM TRIS pH8.5, 100 mM NaCl, 500 μM TCEP, 8 M Urea. Between each step, the beads were separated by mild centrifugation and the supernatant was removed by gentle pipetting.
(§2) Proteins were identified by database searching using SequestHT (Thermo Fisher Scientific) with Proteome Discoverer 2.4 software (PD2.4, Thermo Fisher Scientific) on human FASTA database downloaded from SwissProt (reviewed, release 2020_11_27, 20304 entries, https://www.uniprot.org/). Precursor and fragment mass tolerances were set at 7 ppm and 0.6 Da respectively, and up to two missed cleavages were allowed. Oxidation (M, +15.995 Da) was set as variable modification, and Carbamidomethylation (C, +57.021 Da) as fixed modification. Peptides and proteins were filtered with a false discovery rate at 1%. Label-free quantification was based on the extracted ion chromatography intensity of the peptides. All samples were measured in technical triplicates. The measured extracted ion chromatogram (XIC) intensities were normalized based on median intensities of the entire dataset to correct minor loading differences. For statistical tests and enrichment calculations, not detectable intensity values were treated with an imputation method, where the missing values were replaced by random values similar to the 10% of the lowest intensity values present in the entire dataset. Unpaired two-tailed T-test, assuming equal variance, were performed on obtained log2 XIC intensities. The detection threshold for enriched proteins in AP-MS experiments were analyzed above twofold enrichment with <0.01 P value. Then, proteins with PDZ-domains or PBMs were extracted from the list of enriched proteins. In case only a specific isoform of the detected protein contains a PBM, the identified peptide fragments were manually checked to check which isoform(s) were most likely detected. All raw LC-MS/MS data (from 165 runs) have been deposited to the ProteomeXchange via the PRIDE database with identifier PXD027743.

CASK [6] = test: PBM-AP-MS from Jurkat extract; assay type: binding, Homo sapiens; conditions: Jurkat lysate
Description: as §1, §2

DLG1 = test: PBM-AP-MS from Jurkat extract; assay type: binding, Homo sapiens
Description: as §1, §2

LIN7C [7] = test: PBM-AP-MS from Jurkat extract; assay type: binding, Homo sapiens
Description: as §1, §2

SCRIB [8] = test: PBM-AP-MS from Jurkat extract; assay type: binding, Homo sapiens
Description: as §1, §2

MPP7 [9] = test: PBM-AP-MS from HeLa extract; assay type: binding, Homo sapiens; conditions: prey MPP7 (Q5T2T1), PBM bait vs biotin control
From the text: (§3) Supplement 41467_2022_33018_MOESM5_ESM.xlsx, sheet "HeLa HPV82-E6" | column: -LOG(P-Value); Difference log2; Ratio HPV82E6/Biot

KRT83 = test: PBM-AP-MS from HeLa extract; assay type: binding, Homo sapiens; conditions: prey KRT83 (P78385), PBM bait vs biotin control
From the text: as §3

LGALS7 = test: PBM-AP-MS from Jurkat extract; assay type: binding, Homo sapiens; conditions: prey LGALS7 (P47929), PBM bait vs biotin control
From the text: Supplement 41467_2022_33018_MOESM5_ESM.xlsx, sheet "Jurkat HPV82-E6" | column: -LOG(P-Value); Difference log2; Ratio HPV82/biot

[10] = fold enrichment of prey vs biotin control resin, Jurkat lysate
[11] = prey enrichment on PBM bait resin vs biotin control resin, Jurkat lysate, technical triplicates
[12] = Jurkat extract, prey MAGI1 (Q96QZ7), PBM bait vs biotin control
[13] = Jurkat extract, prey DLG1 (Q12959), PBM bait vs biotin control
[14] = Jurkat extract, prey LIN7C (Q9NUP9), PBM bait vs biotin control
[15] = Jurkat extract, prey SCRIB (Q14160), PBM bait vs biotin control

SCRIB_1 PDZ, sequence (Q14160 728-815 limits assumed): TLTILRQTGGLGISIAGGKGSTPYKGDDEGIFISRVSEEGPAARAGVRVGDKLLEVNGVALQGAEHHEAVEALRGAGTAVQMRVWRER

Kd (DLG1_1 PDZ): 20.4 µM
Kd (SNX27 PDZ): 3.09 µM
Kd (DLG1_2 PDZ): 11 µM
Kd (TX1BP3 PDZ): 1.91 µM
Kd (SCRIB2 PDZ): 13.2 µM
Kd (SCRIB_1 PDZ): 6.31 µM
Substance: PKRSFIESNV [TANC1]

Kd (SNX27 PDZ; holdup affinity of the PBM peptide of the named protein, sheet PBMcomplexome, lower sub-table): 309 µM
Substance: IKAIVDLTGL [TRAF2]

More lines, now with the values behind:

Substance: PELESKESVL [SLC1A4]
Kd (DLG1_1 PDZ): 309 µM
Kd (SNX27 PDZ): 3.72 µM
Kd (DLG1_2 PDZ): 91.2 µM
Kd (TX1BP3 PDZ): 79.4 µM
Kd (SCRIB_1 PDZ): 66.1 µM

Substance: LCALPKVTTV [AGMAT]
Kd (DLG1_1 PDZ): 10.7 µM
Kd (SNX27 PDZ): 37.2 µM
Kd (DLG1_2 PDZ): 1.35 µM
Kd (TX1BP3 PDZ): 85.1 µM
Kd (SCRIB_1 PDZ): 40.7 µM

Substance: SSRTRRETQL [HPV16-E6]
Difference log2 (SNTB2): 5.25
Ratio bait/biot (SNTB2): 38.0503
Difference log2 (CASK [1]): 6.666
Ratio bait/Biot03 (CASK [1]): 101.558
Difference log2 (PDZK1): 4.4
Ratio bait/biot (PDZK1): 21.1168
Difference log2 (LIN7C [2]): 8.385
Ratio bait/Biot03 (LIN7C [2]): 334.203
Difference log2 (CPVL): 4.342
Ratio bait/biot (CPVL): 20.282
Difference log2 (SCRIB [3]): 7.71
Ratio bait/biot (SCRIB [3]): 209.394
Difference log2 (MPP7 [4]): 5.9997
Ratio bait/Biot03 (MPP7 [4]): 63.9865
Difference log2 (SYNJ2BP): 4.095
Ratio bait/Biot03 (SYNJ2BP): 17.0893
Difference log2 (LIN7C [5]): 7.182
Ratio bait/biot (LIN7C [5]): 145.232
Difference log2 (SLC9A3R2): 3.853
Ratio bait/Biot03 (SLC9A3R2): 14.4499
Ratio bait/biot (MAGI1; [10]): 36.8169
Difference log2 (MAGI1; [11]): 5.2023
Ratio bait/biot (CASK [6]; fold enrichment of prey vs biotin control resin): 11.3007
Difference log2 (CASK [6]; prey enrichment on PBM bait resin vs biotin control resin, technical triplicates): 3.498
Ratio bait/biot (DLG1; [10]): 502.402
Difference log2 (DLG1; [11]): 8.9727
Ratio bait/biot (LIN7C [7]; [10]): 32.0459
Difference log2 (LIN7C [7]; [11]): 5.002
Ratio bait/biot (SCRIB [8]; [10]): 256.729
Difference log2 (SCRIB [8]; [11]): 8.0041

Substance: HPV82-E6 ({Biotin-ttds″}-PPRQRSETQV)
Difference log2 (MPP7 [9]): 3.556
Ratio bait/biot (MPP7 [9]): 11.7654
Difference log2 (KRT83): 3.605
Ratio bait/biot (KRT83): 12.1643
Difference log2 (CPVL): 3.939
Ratio bait/biot (CPVL): 15.3339
Difference log2 (SCRIB [3]): 7.349
Ratio bait/biot (SCRIB [3]): 163.074
Difference log2 (LGALS7): 4.513
Ratio bait/biot (LGALS7): 22.8362
Difference log2 (LIN7C [5]): 7.066
Ratio bait/biot (LIN7C [5]): 134.006
Difference log2 (MAGI1; [12]): 5.746
Ratio bait/biot (MAGI1; [12]): 53.6695
Difference log2 (DLG1; [13]): 8.838
Ratio bait/biot (DLG1; [13]): 457.64
Difference log2 (LIN7C [7]; [14]): 5.109
Ratio bait/biot (LIN7C [7]; [14]): 34.5003
Difference log2 (SCRIB [8]; [15]): 7.318
Ratio bait/biot (SCRIB [8]; [15]): 159.61

Substance: PRVKPQRSKV [PPP1R13L]
Kd (TX1BP3 PDZ): 151 µM
